Patent US20140328814A1, “ANTIMICROBIAL AND […] PROBIOTIC COMPOSITION, FOOD PRODUCT AND DIETARY SUPPLEMENT COMPRISING MICROORGANISM STRAIN LACTOBACILLUS […] TENSIA DSM 21380 AND METHOD FOR SUPPRESSING CONTAMINATING MICROBES IN A FOOD PRODUCT” (Oü Tervisliku Piima Biotehnoloogiate Arenduskeskus …, priority 2008, published 2014)
≈ marks a conversion by molar mass, not a printed value.

Key:
[1] = tested on: Lactobacillus plantarum Tensia DSM 21380; assay: Antibiotic resistance, E-test MIC; assay type: cell-based; settings: E-test strips
Procedure: Method. Lactobacillus plantarum Tensia DSM 21380 was tested using antibiotic strips of the E-test (AB Biodisk, Solna).

L. plantarum DSM 21379 = assay: Antibiotic resistance, E-test MIC, control strain; assay type: cell-based, Lactobacillus plantarum; settings: E-test strips

Row | Compound | MIC L. plantarum Tensia DSM 21380 [1] [µg/mL] | MIC Control strain L. plantarum DSM 21379 (L. plantarum DSM 21379) [µg/mL]
1 | Gentamicin | 1.5 | 1
2 | Quinopristin/dalfopristin | 1 | 1
3 | Cipro/ofloxacin | 32 | 32
4 | CC[C@H]1OC(=O)[C@H](C)[C@@H](O[C@H]2C[C@@](C)(OC)[C@@H](O)[C@H](C)O2)[C@H](C)[C@@H](O[C@@H]2O[C@H](C)C[C@H](N(C)C)[C@H]2O)[C@](C)(O)C[C@@H](C)C(=O)[C@H](C)[C@@H](O)[C@]1(C)O [Erytromycin] | 0.19 (≈ 0.259 µM) | 0.25 (≈ 0.341 µM)
